# Data taken from ChEMBL document CHEMBL1201862, “PubChem BioAssay data set” (2004).
#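 The compound was tested at five concentrations on cells cultured in 96-well plates, with a 48-hour exposure period. The concentration for 50% growth inhibition is given as GI50.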 Calls of active or inactive are those of the source. No stated cut-off is given here; in the data, active = GI50 up to about 1.1 µM and inactive = higher.
# Columns and labels:
# Test in all cases: growth of human tumour cells (NCI), 48 h
# 786-0 = tested on: 786-0
# A498 = tested on: A498
# A549 = tested on: A549
# ACHN = tested on: ACHN
# BT-549 = tested on: BT-549
# CAKI-1 = tested on: CAKI-1
# CCRF-CEM = tested on: CCRF-CEM
# COLO 205 = tested on: COLO 205
# DU-145 = tested on: DU-145
# EKVX = tested on: EKVX
# HCC 2998 = tested on: HCC 2998
# HCT-116 = tested on: HCT-116
# HCT-15 = tested on: HCT-15
# HOP-62 = tested on: HOP-62
# HOP-92 = tested on: HOP-92
# HT-29 = tested on: HT-29
# Hs-578T = tested on: Hs-578T
# IGROV-1 = tested on: IGROV-1
# K562 = tested on: K562
# KM12 = tested on: KM12
# LOX IMVI = tested on: LOX IMVI
# M14 = tested on: M14
# MCF7 = tested on: MCF7
# MDA-MB-231 = tested on: MDA-MB-231
# MDA-MB-435 = tested on: MDA-MB-435
# MDA-N = tested on: MDA-N
# MOLT-4 = tested on: MOLT-4
# Malme-3M = tested on: Malme-3M
# NCI-H226 = tested on: NCI-H226
# NCI-H23 = tested on: NCI-H23
# NCI-H460 = tested on: NCI-H460
# NCI-H522 = tested on: NCI-H522
# NCI/ADR-RES = tested on: NCI/ADR-RES
# OVCAR-3 = tested on: OVCAR-3
# OVCAR-4 = tested on: OVCAR-4
# OVCAR-5 = tested on: OVCAR-5
# OVCAR-8 = tested on: OVCAR-8
# PC-3 = tested on: PC-3
# RPMI-8226 = tested on: RPMI-8226
# RXF 393 = tested on: RXF 393
# SF-268 = tested on: SF-268
# SF-295 = tested on: SF-295
# SF-539 = tested on: SF-539
# SK-MEL-28 = tested on: SK-MEL-28
# SK-MEL-2 = tested on: SK-MEL-2
# SK-MEL-5 = tested on: SK-MEL-5
# SK-OV-3 = tested on: SK-OV-3
# SN12C = tested on: SN12C
# SNB-19 = tested on: SNB-19
# SNB-75 = tested on: SNB-75
# SR = tested on: SR
# SW-620 = tested on: SW-620
# T47D = tested on: T47D
# TK-10 = tested on: TK-10
# U-251 = tested on: U-251
# UACC-257 = tested on: UACC-257
# UACC-62 = tested on: UACC-62
# UO-31 = tested on: UO-31
# HL-60 = tested on: HL-60
smiles,measurement,setting,value
COC(OC)C1OC(CO)C(n2ccc(N)nc2=O)C1O (stereo unspecified),GI50,786-0,> 100 µM (inactive)
same,GI50,A498,> 100 µM (inactive)
same,GI50,A549,> 100 µM (inactive)
same,GI50,ACHN,> 100 µM (inactive)
same,GI50,BT-549,> 100 µM (inactive)
same,GI50,CAKI-1,> 100 µM (inactive)
same,GI50,CCRF-CEM,> 100 µM (inactive)
same,GI50,COLO 205,> 100 µM (inactive)
same,GI50,DU-145,> 100 µM (inactive)
same,GI50,EKVX,> 100 µM (inactive)
same,GI50,HCC 2998,> 100 µM (inactive)
same,GI50,HCT-116,> 100 µM (inactive)
same,GI50,HCT-15,> 100 µM
same,GI50,HOP-62,> 100 µM (inactive)
same,GI50,HOP-92,> 100 µM (inactive)
same,GI50,HT-29,> 100 µM (inactive)
same,GI50,Hs-578T,> 100 µM (inactive)
same,GI50,IGROV-1,> 100 µM (inactive)
same,GI50,K562,> 100 µM (inactive)
same,GI50,KM12,> 100 µM (inactive)
same,GI50,LOX IMVI,> 100 µM (inactive)
same,GI50,M14,> 100 µM (inactive)
same,GI50,MCF7,> 100 µM (inactive)
same,GI50,MDA-MB-231,> 100 µM (inactive)
same,GI50,MDA-MB-435,> 100 µM (inactive)
same,GI50,MDA-N,> 100 µM (inactive)
same,GI50,MOLT-4,> 100 µM (inactive)
same,GI50,Malme-3M,> 100 µM (inactive)
same,GI50,NCI-H226,> 100 µM (inactive)
same,GI50,NCI-H23,> 100 µM (inactive)
same,GI50,NCI-H460,> 100 µM (inactive)
same,GI50,NCI-H522,> 100 µM (inactive)
same,GI50,NCI/ADR-RES,> 100 µM (inactive)
same,GI50,OVCAR-3,> 100 µM (inactive)
same,GI50,OVCAR-4,> 100 µM (inactive)
same,GI50,OVCAR-5,> 100 µM (inactive)
same,GI50,OVCAR-8,> 100 µM (inactive)
same,GI50,PC-3,> 100 µM (inactive)
same,GI50,RPMI-8226,> 100 µM (inactive)
same,GI50,RXF 393,> 100 µM (inactive)
same,GI50,SF-268,> 100 µM (inactive)
same,GI50,SF-295,> 100 µM (inactive)
same,GI50,SF-539,> 100 µM (inactive)
same,GI50,SK-MEL-28,> 100 µM (inactive)
same,GI50,SK-MEL-2,> 100 µM (inactive)
same,GI50,SK-MEL-5,> 100 µM (inactive)
same,GI50,SK-OV-3,> 100 µM (inactive)
same,GI50,SN12C,> 100 µM (inactive)
same,GI50,SNB-19,> 100 µM (inactive)
same,GI50,SNB-75,> 100 µM (inactive)
same,GI50,SR,> 100 µM (inactive)
same,GI50,SW-620,> 100 µM (inactive)
same,GI50,T47D,> 100 µM (inactive)
same,GI50,TK-10,> 100 µM (inactive)
same,GI50,U-251,> 100 µM (inactive)
same,GI50,UACC-257,> 100 µM (inactive)
same,GI50,UACC-62,> 100 µM (inactive)
same,GI50,UO-31,> 100 µM (inactive)
COc1ccc(C(SC2C(O)C(CO)OC2n2ccc(N)nc2=O)(c2ccccc2)c2ccc(OC)cc2)cc1 (stereo unspecified),GI50,786-0,16.8 µM (inactive)
same,GI50,A549,18.5 µM (inactive)
same,GI50,ACHN,31.3 µM (inactive)
same,GI50,BT-549,18.2 µM (inactive)
same,GI50,CAKI-1,31.3 µM (inactive)
same,GI50,CCRF-CEM,20.2 µM (inactive)
same,GI50,COLO 205,14.6 µM (inactive)
same,GI50,DU-145,18.5 µM (inactive)
same,GI50,EKVX,18.1 µM (inactive)
same,GI50,HCC 2998,17.1 µM (inactive)
same,GI50,HCT-116,14.9 µM (inactive)
same,GI50,HCT-15,17.8 µM
same,GI50,HL-60,26.9 µM (inactive)
same,GI50,HOP-62,17.8 µM (inactive)
same,GI50,HOP-92,17.5 µM (inactive)
same,GI50,HT-29,16.9 µM (inactive)
same,GI50,Hs-578T,18.4 µM (inactive)
same,GI50,IGROV-1,21.9 µM (inactive)
same,GI50,K562,26.4 µM (inactive)
same,GI50,KM12,19.7 µM (inactive)
same,GI50,LOX IMVI,17.7 µM (inactive)
same,GI50,M14,12.7 µM (inactive)
same,GI50,MCF7,17.3 µM (inactive)
same,GI50,MDA-MB-231,16 µM (inactive)
same,GI50,MDA-MB-435,10.9 µM (inactive)
same,GI50,MDA-N,10.1 µM (inactive)
same,GI50,MOLT-4,19.1 µM (inactive)
same,GI50,Malme-3M,15 µM (inactive)
same,GI50,NCI-H226,14.2 µM (inactive)
same,GI50,NCI-H23,22.2 µM (inactive)
same,GI50,NCI-H460,12.1 µM (inactive)
same,GI50,NCI-H522,13.4 µM (inactive)
same,GI50,NCI/ADR-RES,21 µM (inactive)
same,GI50,OVCAR-3,18.7 µM (inactive)
same,GI50,OVCAR-4,24.8 µM (inactive)
same,GI50,OVCAR-5,20.1 µM (inactive)
same,GI50,OVCAR-8,28.1 µM (inactive)
same,GI50,PC-3,16.4 µM (inactive)
same,GI50,RPMI-8226,17.5 µM (inactive)
same,GI50,RXF 393,17.5 µM (inactive)
same,GI50,SF-268,17.7 µM (inactive)
same,GI50,SF-295,6.79 µM (inactive)
same,GI50,SF-539,18.7 µM (inactive)
same,GI50,SK-MEL-28,27.4 µM (inactive)
same,GI50,SK-MEL-2,16.8 µM (inactive)
same,GI50,SK-MEL-5,12.9 µM (inactive)
same,GI50,SK-OV-3,12.2 µM (inactive)
same,GI50,SN12C,13.3 µM (inactive)
same,GI50,SNB-19,16 µM (inactive)
same,GI50,SNB-75,16.5 µM (inactive)
same,GI50,SR,12.4 µM (inactive)
same,GI50,SW-620,23.6 µM (inactive)
same,GI50,T47D,19.1 µM (inactive)
same,GI50,TK-10,26.8 µM (inactive)
same,GI50,U-251,15.6 µM (inactive)
same,GI50,UACC-257,18.6 µM (inactive)
same,GI50,UACC-62,16.1 µM (inactive)
same,GI50,UO-31,18.5 µM (inactive)
